Assay results as given in US20190233522A1, “NEW DOSAGE REGIMENS FOR ANTIBODY DRUG CONJUGATES BASED ON ANTI-AXL ANTIBODIES” (GENMAB A/S, priority 2016, published 2019).

Experiments:
LXFA 677 = assay: NSCLC PDX model LXFA 677; assay type: in vivo, NMRI nu/nu mice
Experimental: (§1) Inoculation of tumor fragments into 4-6 weeks old male NMRI nu/nu mice and randomization was performed as described above.
(§2) Erlotinib was given daily for 14 days at a dose of 50 mg/kg. Erlotinib alone, IgG1-b12-vcMMAE and IgG1-b12 were used as controls.

LXFA 526 = assay: Erlotinib-resistant NSCLC PDX model LXFA 526; assay type: in vivo, NMRI nu/nu mice
Experimental: as §1
Erlotinib was given daily for 14 days at a dose of 50 mg/kg. Erlotinib alone, IgG1-b12-vcMMAE and IgG1-b12 were used as control.

LU1868 = assay: Erlotinib-resistant NSCLC PDX model LU1868; assay type: in vivo, BALB/c nude mice
Experimental: (§3) Inoculation of tumor fragments into BALB/c nude mice and randomization was performed as described above.
Erlotinib was given daily for 14 days at a dose of 50 mg/kg. Treatments with erlotinib alone, IgG1-b12-vcMMAE or IgG1-b12 were included as controls (FIG. 27).

LU0858 = assay: Erlotinib-resistant NSCLC PDX model LU0858; assay type: in vivo, BALB/c nude mice
Experimental: as §3, §2

LU2511 tumors = assay: Erlotinib-resistant NSCLC PDX model LU2511; assay type: in vivo, BALB/c nude mice
Experimental: Tumor fragments from donor mice bearing patient-derived NSCLC xenografts (LU2511) were used for inoculation into BALB/c nude mice. Each mouse was inoculated subcutaneously at the right flank with one tumor fragment (2-3 mm in diameter) and tumors were allowed to grow until the tumor volume was about 200 mm^3. […] The antibodies and ADCs were dosed intravenously (i.v.) at 4 mg/kg on the day of randomization (day 0) and on day 7. Erlotinib was dosed orally (per os) at 50 mg/kg daily for 2 weeks. Tumor volumes (mm^3) were monitored twice weekly and were calculated from caliper (PLEXX) measurements as: 0.5×(length)×(width)^2.

LXFA 677_3 = assay: NSCLC PDX model LXFA 677_3 (acquired resistance to erlotinib); assay type: in vivo, NMRI nu/nu mice
Experimental: as §1, §2

CV1664 = assay: Cervical cancer PDX model CV1664; assay type: in vivo, BALB/c nude mice
Experimental: Inoculation of tumor fragments into BALB/c nude mice and randomization was performed as described in Example 23.

ES0195 tumors = assay: Esophageal cancer PDX model ES0195; assay type: in vivo, BALB/c nude mice
Experimental: Tumor fragments from donor mice bearing patient-derived esophageal xenografts (ES0195) were used for inoculation into BALB/c nude mice. Each mouse was inoculated subcutaneously at the right flank with one tumor fragment (2-3 mm in diameter) and tumors were allowed to grow until the tumor volume was about 150 mm^3. […] The antibodies and ADCs were dosed intravenously (i.v.) at 4 mg/kg at day of randomization (day 0) and day 7. Paclitaxel was dosed intra-peritoneally (i.p.) at 20 mg/kg at day 0, 7, and 14. Tumor volumes (mm^3) were monitored twice weekly and were calculated from caliper (PLEXX) measurements as: 0.52×(length)×(width)^2.

A431 tumors = assay: A431 xenograft model (high Gas6); assay type: in vivo; conditions: 3 mg/kg i.p., SCID mice
Experimental: (§4) Tumor induction was performed by subcutaneous injection of 5×10^6 A431 or LCLC-103H tumor cells (both obtained from Leibniz-Institut—Deutsche Sammlung von Mikroorganismen and Zellkulturen GmbH (DSMZ)) in 200 μL PBS in the right flank of female SCID mice. Treatment was started 14-21 days after tumor cell inoculation, when the average tumor size was >100-200 mm^3 and distinct tumor growth was observed. Mice received a single injection or a total of 4 biweekly intraperitoneal injections with IgG1-AXL-vcMMAE ADCs or control antibody (unconjugated IgG1-b12), as indicated. Tumor volume was determined at least two times per week. Tumor volumes (mm^3) were calculated from caliper (PLEXX) measurements as: 0.52×(length)×(width)^2.

MDA-MB231 cells = assay: Cytotoxicity assay (CellTiter-Glo) in MDA-MB231 cells; assay type: cell-based; conditions: MDA-MB231 (n = 2), 5 days incubation
Experimental: (§5) LCLC-103H cells (human large cell lung cancer) and A431 cells (DMSZ, Braunschweig, Germany) were cultured in RPMI 1640 with L-Glutamine (Cambrex; cat.no. BE12-115F) supplemented with 10% (vol/vol) heat inactivated Cosmic Calf Serum (Perbio; cat.no. SH30087.03), 2 mM L-glutamine (Cambrex; cat.no. US17-905C), 50 IU/mL penicillin, and 50 µg/mL streptomycin (Cambrex; cat.no. DE17-603E). MDA-MB231 cells were cultured in DMEM with high glucose and HEPES (Lonza #BE12-709F), Donor Bovine Serum with Iron (Life Technologies #10371-029), 2 mM L-glutamine (Lonza #BE17 -605E), 1 mM Sodium Pyruvate (Lonza #BE13-115E), and MEM Non-Essential Amino Acids Solution (Life Technologies #11140). The cell lines were maintained at 37° C. in a 5% (vol/vol) CO2 humidified incubator. LCLC-103H, A431 and MDA-MB231 cells were cultured to near confluency, after which cells were trypsinized, resuspended in culture medium and passed through a cell strainer (BD Falcon, cat.no. 352340) to obtain a single cell suspension. […]
(§6) Subsequently, 180 μL per well was transferred to white 96-well Optiplate™ plates (PerkinElmer, Waltham, Mass.; cat.no. 6005299), which were incubated for 30 min at room temperature. Finally, luminescence was measured on an EnVision multiplate reader (Envision, Perkin Elmer).

LCLC-103H tumors = assay: LCLC-103H xenograft model (low Gas6, Example 5); assay type: in vivo; conditions: 1 mg/kg i.p., SCID mice
Experimental: as §4

A431 cells = assay: Cytotoxicity assay (CellTiter-Glo) in A431 cells; assay type: cell-based; conditions: A431 (n = 3), 5 days incubation
Experimental: as §5, §6

LCLC-103H cells = assay: Cytotoxicity assay (CellTiter-Glo) in LCLC-103H cells; assay type: cell-based, human; conditions: 5 days incubation
Experimental: as §5, §6

PAXF1657 tumors = assay: PAXF1657 pancreas cancer PDX model; assay type: in vivo, NMRI nu/nu mice
Experimental: Human pancreas tumor tissue was subcutaneously implanted in the left flank of 5-7 weeks old female NMRI nu/nu mice. […] At day of randomization (day 0), the 3 ADCs were dosed intravenously (i.v.) at either 4 mg/kg or 2 mg/kg, and the control group received a single dose of IgG1-b12 (4 mg/kg). Tumor volumes (mm^3) were monitored twice weekly and were calculated from caliper (PLEXX) measurements as: 0.52×(length)×(width)^2.

[1] = tested on: LCLC-103H xenograft tumors; assay: Therapeutic treatment of SC LCLC-103H tumor xenografts (Example 3); assay type: in vivo, SCID mice
Experimental: The in vivo efficacy of MMAE-conjugated anti-AXL antibodies was determined in established subcutaneous (SC) LCLC-103H xenograft tumors in SCID mice. 5×10^6 LCLC-103H (large cell lung carcinoma) tumor cells (obtained from Leibniz-Institut DSMZ-Deutsche Sammlung von Mikroorganismen and Zellkulturen GmbH (DSMZ)) in 200 μL PBS were injected subcutaneously in the right flank of female SCID mice. Starting 14-21 days after tumor cell inoculation, when the average tumor size was >100-200 mm^3 and distinct tumor growth was observed, a single injection with 1 mg/kg (20 μg/mouse) IgG1-AXL-vcMMAE antibodies or control (unconjugated IgG1-b12) was given intraperitoneally (100 μL/mouse). Tumor volume was determined at least two times per week. Tumor volumes (mm^3) were calculated from caliper (PLEXX) measurements as: 0.52×(length)×(width)^2.

[2] = 2 doses of 4 mg/kg on days 55 and 62

For `C#Cc1cccc(Nc2ncnc3cc(OCCOC)c(OCCOC)cc23)c1` [erlotinib, reference compound], the “effect on tumor growth, LXFA 677” value (LXFA 677; 50 mg/kg daily for 14 days) was “induced partial tumor regression”, the “effect on tumor growth, LXFA 526” value (LXFA 526; 50 mg/kg daily for 14 days) was “no effect on tumor growth” and the “effect on tumor growth, LU1868” value (LU1868; 50 mg/kg daily for 14 days) was “no effect on tumor growth”. For the same molecule, the “effect on tumor growth, LU0858” value (LU0858; 50 mg/kg daily for 14 days) was “no effect on tumor growth”, the “anti-tumor activity on LU2511 tumors” value (LU2511 tumors; 50 mg/kg per os daily for 2 weeks) was “did not induce anti-tumor activity” and the “effect on tumor growth, LXFA 677_3” value (LXFA 677_3; 50 mg/kg daily for 14 days) was “no effect on tumor growth”.
With IgG1-AXL-107 the “effect on tumor growth compared to IgG1-b12 control group, CV1664” value (CV1664; 4 mg/kg day 0 and 7) was “only induced minor inhibition of tumor growth”.
`CC(=O)O[C@H]1C(=O)[C@@]2(C)[C@H]([C@H](OC(=O)c3ccccc3)[C@]3(O)C[C@H](OC(=O)[C@H](O)[C@@H](NC(=O)c4ccccc4)c4ccccc4)C(C)=C1C3(C)C)[C@]1(OC(C)=O)CO[C@@H]1C[C@@H]2O` [paclitaxel, reference compound] was tested, and the “effect on tumor growth, CV1664” value (CV1664; 20 mg/kg intraperitoneally day 0 and 7) was “induced partial tumor regression” and the “anti-tumor activity on ES0195 tumors” value (ES0195 tumors; 20 mg/kg i.p. day 0, 7 and 14) was “tumor growth inhibition”.
For “IgG1-AXL-107-vcMMAE: anti-AXL antibody 107 (VH SEQ ID No 1, VL SEQ ID No 2) conjugated to MMAE via vc linker”, the “retreatment of three mice with tumor regrowth after paclitaxel, CV1664” value (CV1664; [2]) was “Two of the three mice showed complete tumor regression”, the “retreatment of two mice with tumor regrowth after initial 4 mg/kg ADC, CV1664” value (CV1664; [2]) was “partial tumor regression in both mice” and the “second retreatment of the one mouse with regrowth after paclitaxel and ADC, CV1664” value (CV1664; 2 doses of 4 mg/kg on days 98 and 105) was “partial tumor regression”. The “second retreatment of the same two mice, CV1664” value (CV1664; 2 doses of 4 mg/kg on days 105 and 112) was “partial tumor regression in both animals”, the “effect on tumor growth, CV1664” value (CV1664; both dose levels (2 or 4 mg/kg), day 0 and 7, lasted at least until day 49) was “induced strong tumor regression” and the “effect on tumor growth, LXFA 677” value (LXFA 677; 2 mg/kg day 0 and 7) was “induced tumor growth inhibition”. For the same molecule, the “effect on tumor growth, LXFA 677” value (LXFA 677; 4 mg/kg day 0 and 7) was “induced partial tumor regression”, the “effect on tumor growth, LXFA 526” value (LXFA 526; 2 mg/kg day 0 and 7) was “induced tumor growth inhibition” and the “effect on tumor growth, LXFA 526” value (LXFA 526; 4 mg/kg day 0 and 7) was “complete tumor regression in all mice at least until day 76”. The “anti-tumor activity on ES0195 tumors” value (ES0195 tumors; 4 mg/kg i.v. day 0 and day 7) was “induced tumor regression”, the “anti-tumor activity on A431 tumors” value (A431 tumors) was “induced growth inhibition” and the “effect on tumor growth, LU1868” value (LU1868; 2 mg/kg and 4 mg/kg, day 0 and 7, alone) was “induced tumor growth inhibition”. The “EC50 Mean” value (MDA-MB231 cells) was 0.037 mg/L, the “anti-tumor activity on LCLC-103H tumors” value (LCLC-103H tumors) was “induced regression” and the “EC50 Mean” value (A431 cells) was 0.154 mg/L. The “effect on tumor growth, LU0858” value (LU0858; 2 mg/kg day 0 and 7, alone) was “no effect on tumor growth”, the “effect on tumor growth, LU0858” value (LU0858; 4 mg/kg day 0 and 7, alone, compared to IgG1-b12-vcMMAE control) was “induced tumor growth inhibition” and the “anti-tumor activity on LU2511 tumors” value (LU2511 tumors; 4 mg/kg i.v. day 0 and day 7) was “induced tumor growth inhibition”. The EC50 (LCLC-103H cells) was 0.022 mg/L, the “effect on tumor growth, LXFA 677_3” value (LXFA 677_3; both dose levels (2 and 4 mg/kg), day 0 and 7, lasted at least until day 41) was “induced complete tumor regression” and the “growth of PAXF1657 tumors compared to the control group” value (PAXF1657 tumors; 2 mg/kg i.v., day 0) was “significantly reduced the growth”. The “anti-tumor activity on PAXF1657 tumors” value (PAXF1657 tumors; 4 mg/kg i.v., day 0) was “induced tumor regression”, the “average tumor size versus isotype control IgG1-b12” value (PAXF1657 tumors; day 14, 2 mg/kg or 4 mg/kg, p<0.001 Tukey's multiple comparison test) was “significantly smaller” and the complete tumor reduction ([1]; 1 mg/kg single i.p.) was “in some mice within these groups to complete tumor reduction”. For the same molecule, the “tumor volume versus control IgG1-b12” value ([1]; day 30, One Way ANOVA (Dunnett's), 1 mg/kg single i.p.) was “highly significant difference” and the “anti-tumor activity in established SC LCLC-103H tumors” value ([1]; single i.p. injection 1 mg/kg, SCID mice) was “induced tumor regression”.
